How the values were obtained:
[1] = target: T1, SHP-2 enzyme (Met1-Leu525) (Homo sapiens, UniProt Q06124); assay: SHP2 inhibition enzymatic assay (DiFMUP substrate, IRS1 peptide activation); format: biochemical; details: 0.5 nM SHP-2, 500 nM IRS1 peptide, 75 μM DiFMUP; read-out: SHP2wt - IC50
T1 construct: synthetized by Origene, Met1-Leu525, cat #TP750155; purchased Origene TP750155
T1 sequence (Q06124 1-525): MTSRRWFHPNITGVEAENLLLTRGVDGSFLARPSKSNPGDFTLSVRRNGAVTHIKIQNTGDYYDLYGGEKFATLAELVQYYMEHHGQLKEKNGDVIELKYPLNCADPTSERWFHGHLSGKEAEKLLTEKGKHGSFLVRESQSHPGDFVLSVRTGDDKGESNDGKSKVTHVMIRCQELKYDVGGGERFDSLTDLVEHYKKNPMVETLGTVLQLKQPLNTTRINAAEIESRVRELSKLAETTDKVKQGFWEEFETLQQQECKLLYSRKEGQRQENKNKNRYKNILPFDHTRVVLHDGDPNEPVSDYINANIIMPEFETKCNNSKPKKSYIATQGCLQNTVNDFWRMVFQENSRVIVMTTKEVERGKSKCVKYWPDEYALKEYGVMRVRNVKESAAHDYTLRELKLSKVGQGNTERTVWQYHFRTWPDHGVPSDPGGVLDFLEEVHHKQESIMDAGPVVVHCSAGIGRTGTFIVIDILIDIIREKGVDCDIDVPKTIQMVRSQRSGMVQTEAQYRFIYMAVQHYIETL

[2] = system: phospho-ERK1/2 (Thr202/Tyr204) in KYSE-520 cells; assay: Phospho-ERK cellular assay (TR-FRET); format: cell-based; details: Homo sapiens, KYSE-520, 2 h, KYSE-520 cells, 2 h at 37° C.; read-out: pERK IC50
Method in brief: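 KYSE-520 cells plated overnight, then exposed to compound for 2 h at 37° C and lysed. Phospho-ERK1/2 (Thr202/Tyr204) detected by TR-FRET with Eu-cryptate and D2 antibodies after overnight incubation at rt. IC50 from four-parameter fit, normalised to DMSO (0%) and no-cell (100%) controls.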

[3] = target: T2, SHP2 (Avi-G4SG4S-PTPN11(1-525)) (Homo sapiens, UniProt Q06124); assay: Binding kinetic assay by surface plasmon resonance (SPR); details: Biacore T200, single cycle kinetic, 1:1 Langmuir binding model; for koff: triplicate
T2 construct: (Avi-G4SG4S-PTPN11(1-525)); purchased Viva Biotech Ltd
T2 sequence (Q06124 1-525): T1 sequence (Q06124 1-525)
Method: A binding assay for measuring SHP2 inhibitors binding kinetic was developed using a Biacore T200 Instrument (Cytiva, Sweden). […] Data analysis was performed by Biacore T200 Evaluation software (Cytiva), and kinetic parameters were evaluated by a global fitting according to a 1:1 Langmuir binding model. Each molecule was tested in triplicate on separate flow channels.

IC50 [1] [nM] | IC50 [2] [nM] | Residence time 1/koff SPR [3] [s] | koff [3] [s⁻¹] | SMILES
≤ 50 | < 100 | 3185 | 0.000314 | Nc1nccc(Sc2cnc(N3CCC4(CC3)Cn3ncc(Cl)c3[C@H]4N)cn2)c1Cl [Example 7, (S)-1-(5-((2-amino-3-chloropyridin-4-yl)thio)pyrazin-2-yl)-3′-chloro-4′H,6′H-spiro[piperidine-4,5′-pyrrolo[1,2-b]pyrazol]-4′-amine]
≤ 50 | < 100 | 8621 | 0.000116 | Nc1nccc(Sc2cnc(N3CCC4(CC3)Cn3ncc(Br)c3[C@H]4N)cn2)c1Cl [Example 8, (S)-1-(5-((2-amino-3-chloropyridin-4-yl)thio)pyrazin-2-yl)-3′-bromo-4′H,6′H-spiro[piperidine-4,5′-pyrrolo[1,2-b]pyrazol]-4′-amine]
≤ 50 | < 100 | 9615 | 0.000104 | Nc1nccc(Sc2cnc(N3CCC4(CC3)Cn3ncc(F)c3[C@H]4N)cn2)c1Cl [Example 9, (S)-1-(5-((2-amino-3-chloropyridin-4-yl)thio)pyrazin-2-yl)-3′-fluoro-4′H,6′H-spiro[piperidine-4,5′-pyrrolo[1,2-b]pyrazol]-4′-amine]
≤ 50 | < 100 | 29412 | 3.4e-05 | Cc1cc2n(n1)CC1(CCN(c3cnc(Sc4ccnc(N)c4Cl)cn3)CC1)[C@@H]2N [Example 11, (S)-1-(5-((2-amino-3-chloropyridin-4-yl)thio)pyrazin-2-yl)-2′-methyl-4′H,6′H-spiro[piperidine-4,5′-pyrrolo[1,2-b]pyrazol]-4′-amine]
≤ 50 | < 100 | 3333 | 0.0003 | N[C@@H]1c2ccnn2CC12CCN(c1cnc(Sc3ccnc4c3OC[C@@H]3CCCN43)cn1)CC2 [Example 13, (S)-1-(5-(((S)-6a,7,8,9-tetrahydro-6H-pyrido[3,2-b]pyrrolo[1,2-d][1,4]oxazin-4-yl)thio)pyrazin-2-yl)-4′H,6′H-spiro[piperidine-4,5′-pyrrolo[1,2-b]pyrazol]-4′-amine]
≤ 50 | < 100 | 14535 | 6.88e-05 | Cc1nn2c(c1Cl)[C@@H](N)C1(CCN(c3cnc(Sc4ccnc(N)c4Cl)cn3)CC1)C2 [Example 14, (S)-1-(5-((2-amino-3-chloropyridin-4-yl)thio)pyrazin-2-yl)-3′-chloro-2′-methyl-4′H,6′H-spiro[piperidine-4,5′-pyrrolo[1,2-b]pyrazol]-4′-amine]
≤ 50 | < 100 | 16026 | 6.24e-05 | Cn1cc2c(Cl)c(Sc3cnc(N4CCC5(CC4)Cn4nccc4[C@H]5N)n4ccnc34)ccc2n1 [Example 16, (S)-1-(8-((4-chloro-2-methyl-2H-indazol-5-yl)thio)imidazo[1,2-c]pyrimidin-5-yl)-4′H,6′H-spiro[piperidine-4,5′-pyrrolo[1,2-b]pyrazol]-4′-amine]
≤ 50 | < 100 | 37175 | 2.69e-05 | Nc1nccc(Sc2cnc(N3CCC4(CC3)Cn3ncc(Cl)c3[C@H]4N)n3ccnc23)c1Cl [Example 18, (S)-1-(8-((2-amino-3-chloropyridin-4-yl)thio)imidazo[1,2-c]pyrimidin-5-yl)-3′-chloro-4′H,6′H-spiro[piperidine-4,5′-pyrrolo[1,2-b]pyrazol]-4′-amine]
≤ 50 | < 100 | 5464 | 0.000183 | Nc1nccc(Sc2cnc(N3CCC4(CC3)Cn3nccc3[C@H]4N)c3cncn23)c1Cl [Example 19, (S)-1-(5-((2-amino-3-chloropyridin-4-yl)thio)imidazo[1,5-a]pyrazin-8-yl)-4′H,6′H-spiro[piperidine-4,5′-pyrrolo[1,2-b]pyrazol]-4′-amine]
≤ 50 | < 100 | 12903 | 7.75e-05 | Nc1nccc(Sc2cnc(N3CCC4(CC3)Cn3nc5c(c3[C@H]4N)CCC5)c3cncn23)c1Cl [Example 21, (S)-1′-(5-((2-amino-3-chloropyridin-4-yl)thio)imidazo[1,5-a]pyrazin-8-yl)-1,2,3,8-tetrahydro-6H-spiro[cyclopenta[d]pyrrolo[1,2-b]pyrazole-7,4′-piperidin]-8-amine]
≤ 50 | < 100 | 6536 | 0.000153 | Cc1cc2n(n1)CC1(CCN(c3ncc(Sc4ccnc(N)c4Cl)n4cncc34)CC1)[C@@H]2N [Example 23, (S)-1-(5-((2-amino-3-chloropyridin-4-yl)thio)imidazo[1,5-a]pyrazin-8-yl)-2′-methyl-4′H,6′H-spiro[piperidine-4,5′-pyrrolo[1,2-b]pyrazol]-4′-amine]
≤ 50 | < 100 | 30303 | 3.3e-05 | Nc1nccc(Sc2cnc(N3CCC4(CC3)Cn3nc5c(c3[C@H]4N)COC5)cn2)c1Cl [Example 27, (S)-1′-(5-((2-amino-3-chloropyridin-4-yl)thio)pyrazin-2-yl)-1,8-dihydro-3H,6H-spiro[furo[3,4-d]pyrrolo[1,2-b]pyrazole-7,4′-piperidin]-8-amine]
≤ 50 | > 500 | 1715 | 0.000583 | Nc1nccc(Sc2cnc(N3CCC4(CC3)Cn3nc5c(c3[C@H]4N)COC5)c3cncn23)c1Cl [Example 29, (S)-1′-(5-((2-amino-3-chloropyridin-4-yl)thio)imidazo[1,5-a]pyrazin-8-yl)-1,8-dihydro-3H,6H-spiro[furo[3,4-d]pyrrolo[1,2-b]pyrazole-7,4′-piperidin]-8-amine]
≤ 50 | < 100 | 12674 | 7.89e-05 | N[C@@H]1c2ccnn2CC12CCN(c1cnc(Sc3ccn4ccnc4c3Cl)cn1)CC2 [Example 31, (S)-1-(5-((8-chloroimidazo[1,2-a]pyridin-7-yl)thio)pyrazin-2-yl)-4′H,6′H-spiro[piperidine-4,5′-pyrrolo[1,2-b]pyrazol]-4′-amine]
≤ 50 | < 100 | 1062 | 0.000942 | Nc1nccc(Sc2cnc(N3CCC4(CC3)Cn3nncc3[C@H]4N)cn2)c1Cl [Example 38, (S)-1-(5-((2-amino-3-chloropyridin-4-yl)thio)pyrazin-2-yl)-4′H,6′H-spiro[piperidine-4,5′-pyrrolo[1,2-c][1,2,3]triazol]-4′-amine]
≤ 50 | < 100 | 14493 | 6.9e-05 | N[C@@H]1c2c(F)cnn2CC12CCN(c1cnc(Sc3ccn4ccnc4c3Cl)cn1)CC2 [Example 49, (S)-1-(5-((8-chloroimidazo[1,2-a]pyridin-7-yl)thio)pyrazin-2-yl)-3′-fluoro-4′H,6′H-spiro[piperidine-4,5′-pyrrolo[1,2-b]pyrazol]-4′-amine]

Source: patent US20240239799A1, “(S)-1-(5-((PYRIDIN-3-YL)THIO)PYRAZIN-2-YL)-4'H,6'H-SPIRO[PIPERIDINE-4,5'-PYRROLO [1,2-B]PYRAZOL]-4'-AMINE DERIVATIVES AND SIMILAR COMPOUNDS AS SHP2 INHIBITORS FOR THE TREATMENT OF E.G. CANCER” (C.N.C.C.S. S.C.A.R.L. COLLEZIONE NAZIONALE DEI COMPOSTI …, priority 2021, published 2024)
